pIC50: −log10 of the molar value.
Columns and labels:
[1] = tested on: P. aeruginosa expressing IMP-1, efflux+ (MB9798); format: cell-based, Pseudomonas aeruginosa; details: for P. aeruginosa expressing IMP-1, efflux+ (MB9798) MITC95: imipenem at 2 μg/mL, in the presence of a class A, C, D serine β-lactamase inhibitor closely related to relebactam; for Efflux ratio: ratio MITC95 PA_9798/MITC95 PA_9799
Text: (§1) The strain background is Pseudomonas aeruginosa PAO1.

[2] = tested on: Serratia marcescens expressing IMP-1 (CL5741); format: cell-based; details: with imipenem 1 μg/ml; 95% inhibition of bacterial growth
How it was run: (§2)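 Clinical strains grown overnight on blood agar, then diluted 1:100 in 1.1× CAMHB and exposed to test compound with imipenem at 1 μg/ml. Incubation was 22–24 h at 35° C; growth was read by absorbance to find the compound concentration restoring imipenem susceptibility.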

[3] = tested on: Escherichia coli expressing NDM-1 (CLB30005, CLB30016); format: cell-based; details: with imipenem 1 μg/ml; 95% inhibition of bacterial growth
How it was run: as §2

[4] = tested on: Klebsiella pneumoniae expressing VIM-1 (IHMA599644); format: cell-based; details: with imipenem 1 μg/ml; 95% inhibition of bacterial growth
How it was run: as §2

[5] = tested on: P. aeruginosa expressing IMP-1, efflux− (MB9799); assay: Efflux: concentration of MBL inhibitor which restores susceptibility to imipenem; format: cell-based, Pseudomonas aeruginosa; details: imipenem at 2 μg/mL, in the presence of a class A, C, D serine β-lactamase inhibitor closely related to relebactam
Text: as §1

[6] = molecular target: VIM-1 (Pseudomonas aeruginosa (strain ATCC 15692 / DSM 22644 / CIP 104116 / JCM 14847 / LMG 12228 / 1C / PRS 101 / PAO1), UniProt A0A0F7KYQ8); assay: biochemical; details: CCF2-FA substrate, 2 hours at 25° C
How it was run: (§3)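 Fluorescence assay of metallo-β-lactamase activity using CCF2-FA, a cephalosporin-linked 7-hydroxycoumarin–fluorescein substrate. Inhibitor, enzyme and substrate were incubated together for 2 hours at 25° C. IC50 came from a 4-parameter fit of inhibition versus inhibitor concentration.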

[7] = molecular target: NDM-1 (Klebsiella pneumoniae, UniProt C7C422); assay: biochemical; format: biochemical; details: CCF2-FA substrate, 2 hours at 25° C; read-out: NDM-1 IC50
How it was run: as §3

[8] = molecular target: IMP-1 (Serratia marcescens, UniProt P52699); assay: biochemical; format: biochemical; details: CCF2-FA substrate, 2 hours at 25° C; read-out: IMP-1 IC50
How it was run: as §3

Chain of NDM-1 (C7C422 whole entry, looked up, species assumed): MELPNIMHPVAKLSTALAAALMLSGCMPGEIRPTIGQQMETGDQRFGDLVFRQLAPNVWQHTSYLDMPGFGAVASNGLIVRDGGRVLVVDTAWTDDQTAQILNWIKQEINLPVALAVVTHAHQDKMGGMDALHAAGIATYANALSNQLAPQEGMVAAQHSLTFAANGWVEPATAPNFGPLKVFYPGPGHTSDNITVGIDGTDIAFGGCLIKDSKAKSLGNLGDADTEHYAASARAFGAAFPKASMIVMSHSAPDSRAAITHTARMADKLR
Chain of IMP-1 (P52699 whole entry, looked up, species assumed): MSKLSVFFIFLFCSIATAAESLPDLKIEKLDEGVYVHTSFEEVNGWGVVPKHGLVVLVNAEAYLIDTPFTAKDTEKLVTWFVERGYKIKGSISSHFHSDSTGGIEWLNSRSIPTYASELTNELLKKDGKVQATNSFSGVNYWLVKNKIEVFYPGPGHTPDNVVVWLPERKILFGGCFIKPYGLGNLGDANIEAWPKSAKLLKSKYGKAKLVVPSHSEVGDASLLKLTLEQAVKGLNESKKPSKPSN

SMILES | P. aeruginosa expressing IMP-1, efflux+ (MB9798) MITC95 [1] [µM] | Efflux ratio [1] | Serratia marcescens expressing IMP-1 (CL5741) MITC95 [2] [µM] | Escherichia coli expressing NDM-1 (CLB30016) MITC95 [3] [µM] | Klebsiella pneumoniae expressing VIM-1 (IHMA599644) MITC95 [4] [µM] | P. aeruginosa expressing IMP-1, efflux− (MB9799) MITC95 [5] [µM] | pIC50 [6] | pIC50 [7] | pIC50 [8]
NS(=O)(=O)c1c(S(=O)(=O)C2CNC2)ccc(-c2ccc3cnccc3c2)c1-c1nnn[nH]1.O=C(O)C(F)(F)F [Example 116, 3-((4-(isoquinolin-6-yl)-2-sulfamoyl-3-(1H-tetrazol-5-yl)phenyl)sulfonyl)azetidin-1-ium 2,2,2-trifluoroacetate] | 25 | 15.99 | 3.125 | 1.563 | 3.125 | 1.563 | 9.75 | 9.70 | 9.14
NS(=O)(=O)c1c(S(=O)(=O)C2CNC2)ccc(-c2ccc3nccnc3c2)c1-c1nnn[nH]1.O=C(O)C(F)(F)F [Example 117, 3-((4-(quinoxalin-6-yl)-2-sulfamoyl-3-(1H-tetrazol-5-yl)phenyl)sulfonyl)azetidin-1-ium 2,2,2-trifluoroacetate] | 25 | 15.99 | 3.125 | 6.25 | 6.25 | 1.563 | 9.37 | 9.03 | 8.85
NS(=O)(=O)c1c(S(=O)(=O)C2CNC2)ccc(-c2cccc3ncccc23)c1-c1nnn[nH]1.O=C(O)C(F)(F)F [Example 118, 3-((4-(quinolin-5-yl)-2-sulfamoyl-3-(1H-tetrazol-5-yl)phenyl)sulfonyl)azetidin-1-ium 2,2,2-trifluoroacetate] | 12.5 | 4.00 | 6.25 | 3.125 | 6.25 | 3.125 | 9.41 | 9.84 | 8.85
Cn1nnc2ccc(-c3ccc(S(=O)(=O)C4CNC4)c(S(N)(=O)=O)c3-c3nnn[nH]3)cc21.O=C(O)C(F)(F)F [Example 119, 3-((4-(1-methyl-1H-benzo[d][1,2,3]triazol-6-yl)-2-sulfamoyl-3-(1H-tetrazol-5-yl)phenyl)sulfonyl)azetidin-1-ium 2,2,2-trifluoroacetate] | 100 | 63.98 | 6.25 | 6.25 | 6.25 | 1.563 | 9.30 | 8.74 | 8.24
NS(=O)(=O)c1c(S(=O)(=O)C2CNC2)ccc(-c2csc(N3CCCC3)n2)c1-c1nnn[nH]1.O=C(O)C(F)(F)F [Example 120, 3-((4-(2-(pyrrolidin-1-yl)thiazol-4-yl)-2-sulfamoyl-3-(1H-tetrazol-5-yl)phenyl)sulfonyl)azetidin-1-ium 2,2,2-trifluoroacetate] | 25 | 15.99 | 3.125 | 3.125 | 6.25 | 1.563 | 8.85 | 9.12 | 9.26
NS(=O)(=O)c1c(S(=O)(=O)C2CNC2)ccc(-c2cnc(N3CCCC3)s2)c1-c1nnn[nH]1.O=C(O)C(F)(F)F [Example 121, 3-((4-(2-(pyrrolidin-1-yl)thiazol-5-yl)-2-sulfamoyl-3-(1H-tetrazol-5-yl)phenyl)sulfonyl)azetidin-1-ium 2,2,2-trifluoroacetate] | 200 | 127.96 | 3.125 | 0.7813 | 6.25 | 1.563 | 8.84 | 9.13 | 8.45
Cc1ccc2cccc(-c3ccc(S(=O)(=O)C4CNC4)c(S(N)(=O)=O)c3-c3nnn[nH]3)c2n1.O=C(O)C(F)(F)F [Example 122, 3-((4-(2-methylquinolin-8-yl)-2-sulfamoyl-3-(1H-tetrazol-5-yl)phenyl)sulfonyl)azetidin-1-ium 2,2,2-trifluoroacetate] | 6.25 | 4.00 | 3.125 | 3.125 | 6.25 | 1.563 | 9.49 | 9.81 | 9.24
Cn1ncc2c(-c3ccc(S(=O)(=O)C4CNC4)c(S(N)(=O)=O)c3-c3nnn[nH]3)cccc21.O=C(O)C(F)(F)F [Example 123, 3-((4-(1-methyl-1H-indazol-4-yl)-2-sulfamoyl-3-(1H-tetrazol-5-yl)phenyl)sulfonyl)azetidin-1-ium 2,2,2-trifluoroacetate] | 25 | 15.99 | 3.125 | 1.563 | 3.125 | 1.563 | 9.67 | 9.77 | 8.94
NS(=O)(=O)c1c(S(=O)(=O)C2CNC2)ccc(-c2csc(N3CCOCC3)n2)c1-c1nnn[nH]1.O=C(O)C(F)(F)F [Example 124, 3-((4-(2-morpholinothiazol-4-yl)-2-sulfamoyl-3-(1H-tetrazol-5-yl)phenyl)sulfonyl)azetidin-1-ium 2,2,2-trifluoroacetate] | 200 | 127.96 | 6.25 | 3.125 | 12.5 | 1.563 | 8.31 | 8.83 | 8.21
NS(=O)(=O)c1c(S(=O)(=O)C2CNC2)ccc(-c2cccc(C3CCC(=O)N3)c2)c1-c1nnn[nH]1.O=C(O)C(F)(F)F (stereo not drawn) [Example 125, 3-((3′-(5-oxopyrrolidin-2-yl)-3-sulfamoyl-2-(1H-tetrazol-5-yl)-[1,1′-biphenyl]-4-yl)sulfonyl)azetidin-1-ium 2,2,2-trifluoroacetate] | 50 | 16.00 | 6.25 | 6.25 | 6.25 | 3.125 | 8.60 | 8.40 | 8.28
Cc1n[nH]c2ccc(-c3ccc(S(=O)(=O)C4CNC4)c(S(N)(=O)=O)c3-c3nnn[nH]3)cc12.O=C(O)C(F)(F)F [Example 126, 3-((4-(3-methyl-1H-indazol-5-yl)-2-sulfamoyl-3-(1H-tetrazol-5-yl)phenyl)sulfonyl)azetidin-1-ium 2,2,2-trifluoroacetate] | 12.5 | 8.00 | 6.25 | 3.125 | 6.25 | 1.563 | 9.32 | 9.37 | 9.15
NS(=O)(=O)c1c(S(=O)(=O)C2CNC2)ccc(-c2ccc3cn[nH]c3c2)c1-c1nnn[nH]1.O=C(O)C(F)(F)F [Example 127, 3-((4-(1H-indazol-6-yl)-2-sulfamoyl-3-(1H-tetrazol-5-yl)phenyl)sulfonyl)azetidin-1-ium 2,2,2-trifluoroacetate] | 25 | 15.99 | 3.125 | 0.7813 | 3.125 | 1.563 | 9.37 | 9.37 | 8.52

Source: US10227331B2 (priority 2015, dated 2019)
